The text below walks through data of paper PMC10193543 (ACS Omega, 2023).

The target in test [1] is T1, mushroom TYR (Agaricus bisporus, UniProt C7FF04). In words: biochemical. The conditions noted are these: read-out: % inhibition at 25 μg/mL.
Target sequence in this assay (C7FF04 2-392): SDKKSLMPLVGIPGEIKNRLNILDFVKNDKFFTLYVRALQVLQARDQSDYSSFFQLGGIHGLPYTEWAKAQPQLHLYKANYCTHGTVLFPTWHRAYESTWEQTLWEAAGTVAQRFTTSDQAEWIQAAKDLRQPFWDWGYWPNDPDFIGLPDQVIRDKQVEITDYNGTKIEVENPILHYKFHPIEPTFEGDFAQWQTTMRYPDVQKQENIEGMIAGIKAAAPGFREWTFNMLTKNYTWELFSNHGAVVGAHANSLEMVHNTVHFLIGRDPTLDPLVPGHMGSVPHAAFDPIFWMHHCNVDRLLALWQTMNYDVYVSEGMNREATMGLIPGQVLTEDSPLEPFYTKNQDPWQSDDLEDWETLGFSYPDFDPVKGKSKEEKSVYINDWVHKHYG
The target in test [2] is T1, mushroom TYR. Nature of the test: Kinetic study of tyrosinase inhibitory activity. The test is classed as biochemical.
Target sequence in this assay (C7FF04 1-392 limits assumed): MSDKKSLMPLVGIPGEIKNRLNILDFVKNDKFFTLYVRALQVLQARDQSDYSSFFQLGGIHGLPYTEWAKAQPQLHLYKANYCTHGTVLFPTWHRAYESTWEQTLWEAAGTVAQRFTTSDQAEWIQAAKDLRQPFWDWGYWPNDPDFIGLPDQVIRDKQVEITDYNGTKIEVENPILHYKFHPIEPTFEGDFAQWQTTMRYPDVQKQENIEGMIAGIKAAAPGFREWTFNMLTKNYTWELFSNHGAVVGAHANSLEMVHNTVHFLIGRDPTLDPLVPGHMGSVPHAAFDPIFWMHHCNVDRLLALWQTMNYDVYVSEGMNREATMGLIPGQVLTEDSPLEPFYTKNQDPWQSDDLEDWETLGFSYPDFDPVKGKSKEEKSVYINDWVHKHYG

Turning to `COc1ccc(C2CC(c3ccc(C)cc3)=Nc3ccccc3S2)cc1OC` (stereo not drawn) [compound 2, 2-(3,4-dimethoxyphenyl)-4-(p-tolyl)-2,3-dihydrobenzo[b][1,4]thiazepine], on mushroom TYR [1], the inhibition at 25 µg/mL was 89 ± 3%. For the same molecule, at mushroom TYR [2], the Ki (commonly a measure of affinity in units of concentration, obtained from inhibition or displacement) was found to be 1010 nM. For the same molecule, the inhibition type entry at mushroom TYR [2] (diphenolase activity, L-DOPA oxidation, Lineweaver–Burk plots) was “mixed-type inhibition”.
